Bounds are passed on as bounds.

Series [1] has as its target Dipeptidyl peptidase 4 (Rattus norvegicus, UniProt P14740). In words: In vitro inhibitory activity against Dipeptidyl peptidase IV (DPP-IV) extracted from rat plasma. Format: cell-free.
A short description of series [2]: Cmax after an oral dose of 10 umol/Kg in male cynomolgus monkeys. Format: ADME, organism-based, Macaca fascicularis. The arrangement: dose 10 umol/Kg, route oral. As to conditions: cynomolgus monkey, in vivo.
A short description of series [3]: Steady state volume of distribution male cynomolgus monkeys. Format: ADME, organism-based, Macaca fascicularis. Conditions: cynomolgus monkey, in vivo.
Series [4] can be described thus: Steady state volume of distribution in male Sprague-Dawley rats. Format: ADME, organism-based. As to conditions: rat, in vivo.
In series [5] the test system is Monkey. In words: In vivo ability to reduce the plasma glucose levels ( in 0-90 minutes glucose AUC) in monkey compared to control during an oral glucose tolerance test (PGTT). Format: functional, Cercopithecidae.
A short description of series [6]: Absolute bioavailability in male cynomolgus monkeys. The series is classed as ADME, organism-based, Macaca fascicularis. Conditions: cynomolgus monkey, in vivo.
A short description of series [7]: Half-life (t1/2) after an oral dose of 1 uM/Kg in monkey. As to conditions: simiiformes, in vivo. Format: ADME, organism-based.
Series [8] is described as follows: Clearance from plasma in male cynomolgus monkeys. Format: ADME, organism-based, Macaca fascicularis. As to conditions: cynomolgus monkey.
A short description of series [9]: Absolute bioavailability in maleSprague-Dawley rats. The series is classed as ADME, organism-based. As to conditions: male, Sprague-Dawley, rat, in vivo.
Series [10] is described as follows: Clearance from plasma in male Sprague-Dawley rats. As to conditions: rat. Format: ADME, organism-based.
A short description of series [11]: Cmax after an oral dose of 10 umol/Kg in male Sprague-Dawley rats. The series is classed as ADME, organism-based. The arrangement: dose 10 umol/Kg, route oral. As to conditions: rat, in vivo.
Series [12] can be described thus: Half-life (t1/2) after an oral dose of 100 mg in human. The series is classed as ADME, organism-based. Conditions: in vivo.
Series [13] has as its system Monkey. In words: In vivo ability to reduce the peak plasma glucose levels in monkey compared to control ( 88 +/- 3 mg/dL) during an oral glucose tolerance test (OGTT). Format: functional, Cercopithecidae.

Chain of Dipeptidyl peptidase 4 (P14740 whole entry): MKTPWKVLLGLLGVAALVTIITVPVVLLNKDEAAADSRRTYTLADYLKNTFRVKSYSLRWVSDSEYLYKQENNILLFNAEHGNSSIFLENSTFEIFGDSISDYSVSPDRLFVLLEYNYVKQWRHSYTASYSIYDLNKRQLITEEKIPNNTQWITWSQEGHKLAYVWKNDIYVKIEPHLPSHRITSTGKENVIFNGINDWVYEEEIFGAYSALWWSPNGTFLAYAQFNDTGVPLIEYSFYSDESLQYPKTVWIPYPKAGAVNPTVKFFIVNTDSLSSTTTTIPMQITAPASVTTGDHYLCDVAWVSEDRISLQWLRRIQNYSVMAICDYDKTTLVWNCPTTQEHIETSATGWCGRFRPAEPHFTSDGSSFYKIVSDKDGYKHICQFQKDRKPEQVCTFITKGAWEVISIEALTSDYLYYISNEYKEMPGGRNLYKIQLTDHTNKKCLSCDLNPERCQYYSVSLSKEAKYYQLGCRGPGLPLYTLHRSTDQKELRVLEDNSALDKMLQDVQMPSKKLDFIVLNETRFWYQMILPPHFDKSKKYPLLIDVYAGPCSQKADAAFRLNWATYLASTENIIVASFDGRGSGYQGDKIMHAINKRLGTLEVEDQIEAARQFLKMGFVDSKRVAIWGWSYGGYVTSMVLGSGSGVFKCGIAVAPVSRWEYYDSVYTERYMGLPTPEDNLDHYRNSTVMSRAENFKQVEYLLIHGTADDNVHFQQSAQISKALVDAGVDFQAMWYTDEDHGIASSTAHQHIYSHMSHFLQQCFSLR

With `N#C[C@@H]1CCCN1C(=O)[C@@H](N)C1CCCCC1`, in series [1], the midpoint of inhibition, the IC50, lay at 2.8 nM.

Regarding `N#Cc1ccc(NCCNCC(=O)N2CCC[C@H]2C#N)nc1`, the Cmax in series [2] came to 7.56 µM; in [11], 3.65 µM. Also, the Vd amounted to 0.841 L/kg in series [3] and 0.67 L/kg in series [4]. The Reduction in series [5] came to 38%; in series [13] it was 98. The bioavailability in [6] and in series [9] was at least 74% throughout. The half-life in series [7] and in series [12] was 51 min throughout. The clearance in [8] turned out to be 21.9 mL/min/kg; in series [10], 28 mL/min/kg.

For the origin of these results see ChEMBL document CHEMBL1135431, “1-[2-[(5-Cyanopyridin-2-yl)amino]ethylamino]acetyl-2-(S)-pyrrolidinecarbonitrile: a potent, selective, and orally bioavailable dipeptidyl peptidase IV inhibitor with antihyperglycemic properties” (J Med Chem, 2002).
